Data taken from ChEMBL document CHEMBL3621195, “Analogues of the marine alkaloids oroidin, clathrodin, and hymenidin induce apoptosis in human HepG2 and THP-1 cancer cells” (Medchemcomm, 2015).
pEC50: −log10 of the molar value.

Columns and labels:
THP-1 [1] = experiment: Induction of apoptosis in human THP1 cells at 50 uM incubated for 24 hrs by Annexin V-FITC and propidium iodide staining based microcapillary flow cytometry; type: functional
THP-1 [2] = experiment: Induction of apoptosis in human THP1 cells incubated for 24 hrs by Annexin V-FITC and propidium iodide staining based microcapillary flow cytometry; type: functional, cell-based; conditions: THP-1, 24 h
HepG2 [3] = experiment: Induction of apoptosis in human HepG2 cells incubated for 24 hrs by Annexin V-FITC and propidium iodide staining based microcapillary flow cytometry; type: functional, cell-based; conditions: HepG2, 24 h
THP-1 [4] = experiment: Induction of cell cycle arrest in human THP1 cells assessed accumulation at subG1 phase at 25 uM incubated for 48 hrs by propidium iodide staining based microcapillary flow cytometry (reference value: 2 +/- 1%); type: functional
HepG2 [5] = experiment: Induction of apoptosis in human HepG2 cells at 50 uM incubated for 24 hrs by Annexin V-FITC and propidium iodide staining based microcapillary flow cytometry; type: functional
THP-1 [6] = experiment: Induction of cell cycle arrest in human THP1 cells assessed accumulation at subG1 phase at 25 uM incubated for 24 hrs by propidium iodide staining based microcapillary flow cytometry (reference value: 2 +/- 1%); type: functional

Row | pEC50 (THP-1 [2]) | pEC50 (HepG2 [3]) | Structure (SMILES) | Activity (THP-1 [1]) | Activity (THP-1 [4]) | Activity (HepG2 [5]) | Activity (THP-1 [6])
1 | 4.62 | 4.70 | CNc1nc(-c2cccc(NC(=O)c3cc4ccccc4[nH]3)c2)c[nH]1.Cl | 87% | 49% | 91% | 18%
2 | 4.62 | 4.80 | Cl.Nc1nc(-c2cccc(NC(=O)c3cc4cc(Cl)ccc4[nH]3)c2)c[nH]1 | 87% | 40% | 93% | 26%
